Target: Acetylcholinesterase (Electrophorus electricus, UniProt O42275)
Sequence (O42275 whole entry): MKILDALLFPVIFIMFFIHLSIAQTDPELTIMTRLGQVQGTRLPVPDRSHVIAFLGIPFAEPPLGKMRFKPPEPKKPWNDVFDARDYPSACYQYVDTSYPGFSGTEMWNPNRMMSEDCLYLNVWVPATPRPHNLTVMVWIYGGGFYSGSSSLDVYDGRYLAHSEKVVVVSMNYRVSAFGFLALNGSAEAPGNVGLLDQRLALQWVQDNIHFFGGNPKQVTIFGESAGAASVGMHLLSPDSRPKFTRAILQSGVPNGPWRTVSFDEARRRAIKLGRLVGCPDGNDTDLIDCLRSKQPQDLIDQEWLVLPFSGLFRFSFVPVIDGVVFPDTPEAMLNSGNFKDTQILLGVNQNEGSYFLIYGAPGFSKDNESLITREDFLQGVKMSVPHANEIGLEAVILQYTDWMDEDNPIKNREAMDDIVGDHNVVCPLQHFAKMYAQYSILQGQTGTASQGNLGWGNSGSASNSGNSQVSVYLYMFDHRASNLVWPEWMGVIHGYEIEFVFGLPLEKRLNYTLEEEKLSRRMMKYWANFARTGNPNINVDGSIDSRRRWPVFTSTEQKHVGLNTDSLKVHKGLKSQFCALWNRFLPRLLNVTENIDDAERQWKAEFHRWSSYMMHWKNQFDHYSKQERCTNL
Description: Inhibition of Electrophorus electricus acetylcholinesterase using acetylthiocholineiodide as substrate measured at 30 secs intervals over 9 mins by Ellman's colorimetric assay

| Structure (SMILES) | IC50 |
| --- | --- |
| C#Cc1ccc(OC(=O)OCCC(C)(C)C)cc1 | 59 µM |
| C#Cc1ccc(NC(=O)OCC[Si](C)(C)C)cc1 | 34.4 µM |
